Entries after “also recorded” stand apart in the source; their conditions may differ. Where two headings read alike, the source gives them in different places. *1 amine or outer side, *2 acyl side, *3 side chain or, on linkers, in order; H or OH if unused. Where a SMILES comes first, the peptide text is derived from it. [ ]: non-standard residue; d: D form. X1 = N=C(N)NC(=O)c1nc(Cl)c(N(CC(=O)[*:2])[*:1])nc1N
How the values were obtained:
[1] = in vivo; cited from earlier work
[2] = test system: U87 glioma cells; test: U87 proliferation and survival, tetrazolium (WST) live cell assay and manual cell counts; type: cell-based, human; conditions: for activity at 250 µM: Homo sapiens, U-87 MG, 48 h treatment, read-out: cell numbers as % of control at 48 h (WST assay)
Procedure: Proliferation of U87 glioma cells was inhibited by AmC(5)-GlyOBn at 24 h. […] Manual cell counts, coupled with the trypan blue exclusion assay, determined the number of viable cells at 24 h and 48 h. Three separate experiments (n=6/exp) with S.D. as shown, *significance at P<0.01. Removal of AmC(5)-GlyOBn at 24 h caused cell numbers to increase by 48 h, as compared with U87 glioma cell numbers that continued to be treated with the drug for 48 h (Table 1).
Total live cell numbers per well were determined using a tetrazolium assay (WST).
WST […] that can be reduced in attached and detached live cells to formazon that is detected spectrophotometrically. Formazon formation has been determined to be proportional to glioma cell number for U87MG, U251, U373, and primary astrocytes. Absorbances are measured at 570 nm using a microtiter plate reader. Mean background absorbances of cell-free media (630 nm) are subtracted from these values. […] Identical concentrations of glioma cells are grown until 50% confluent on 60 mm plates. Following drug treatments, floating cells in media are collected and combined with adherent cells that were harvested following 0.25% v/v trypsin for 5 minutes (37° C.). The combined fractions are centrifuged at 350×g for 5 min. The resultant cell pellet is resuspended in equal volumes of PBS-CMF with 0.4% trypan blue.

[3] = test system: U87 glioma cells; test: Cell permeation by fluorescent microscopy of U87 glioma cells; type: cell-based; conditions: 50 μM, 90-180 min incubation
Procedure: 27). The fluorescent extinction coefficient of each compound is determined using a spectrofluorometer and permits semi-quantitative estimations of intracellular drug accumulation.
U87 glioma cells were incubated with 50 uM of each compound for 180 min followed by washing the cells ×2 with PBS.

[4] = Neuropathology and behaviour with intracranial administration; type: in vivo
From the text: […]. For amiloride, parasaggital sections were stained with hematoxylin and eosin in addition to using specialized stains for neuronal damage (FluoroJade) and for myelinated fiber tracts (luxol fast blue). […].
. Each experimental and control group described below consist of a minimum of 10 animals per group. Experimental Design. The in vivo toxicity studies initially employ single, daily intracranial infusions of the candidate compound into a group of Sprague-Dawley rats for 13 days. Treated S-D animals are compared to a group of 10 control animals receiving intracranial drug vehicle injections. The infused drug concentration is based upon the cell line studies and adjusted for the low protein content of the cerebrospinal fluid which is 0.2% that of serum. Animals are behaviorally assessed for toxicity. […]. General Health and Behavioral Studies. Body weights and behavioral parameters are assessed daily in drug-treated and vehicle-treated rats during 12 day treatment paradigms. Currently, standardized behavior tests are used, which include quantitative measures of vestibulomotor function, fine motor coordination, ambulation, and spatial memory. A daily neurotoxicity behavioral sign checklist (72) to detect neurological signs of toxicity and seizures is also performed. Acquisition of spatial memory is particularly sensitive for detecting subtle drug toxicities (Preliminary Results). Body weight is used as a measure of general health. Neuropathological Studies: Cytological studies are performed in the same drug-treated and vehicle-treated rats at the conclusion of behavioral testing. Fixation and sectioning techniques are described in the Experimental Methods section. Hematoxylin and eosin are used routinely to survey for neuropathological changes. Luxol fast blue stains myelin tracts to evaluate potential white matter changes. […] Assessment of brainstem white matter tracts with luxol fast blue staining includes the spinocerebellar, vestibulospinal, corticospinal, spinothalamic. Specialized stains for reactive astrocytes, neuronal chromatolysis, etc. are added if brain lesions are detected. […]. Potential Problems and Alternatives. […]. […] These behavioral studies indicate the need to behaviorally assess treatment of the glioma tumor models.

[5] = test system: intracerebral human U87 glioma xenografts; test: Intracerebral U87 glioma xenograft growth (NMR, stereology); type: in vivo, athymic rats
Procedure: The volume of U87 glioma xenografts were measured at different postimplantation times using the small animal 7 tesla NMR facility on UC Davis campus.
Determining tumor doubling time (hrs) in U87 xenografts were measured using small animal NMR.
Pretreatment of athymic rats with intracranial AmC(5)Gly-OBn for 3 days prior to implantation achieved steady-state brain levels as measured by HPLC-fluorometry. Following glioma cell implantation, once daily intracranial administration was continued for 10 days.
Rats (250-280 gm) are intubated with 4% isoflurane and air:O2 (2:1), maintained on 2% isoflurane, and placed into a Kopf stereotactic apparatus. Glioma cells at are harvested at 80% confluence, trypsinized, and then washed three times in sterile, isotonic phosphate buffered saline. Cells are counted in a hemocytometer and diluted to a final concentration of 1×10^4 cells per microL. 5 microL of glioma cells (5×10^4) are stereotaxically injected into a 0.5 mm pocket made by a 23 gauge needle in the left anterior corpus striatum (−1 mm bregma, +4 mm left lateral, −5.0 mm depth) under sterile conditions in a laminar flow hood.
Prior to imaging the rats are administered 0.5 cc of OMNISCAN gadodiamide intraperitoneally (NYCOMED). […] A gradient recalled echo sequence is obtained which furnished a single slice in sagittal, coronal, and transverse orientations (‘triplot’) and which served as a scout image to ensure proper positioning of the animal. Spectroscopic images are obtained with a 7 Tesla (300 MHz) BRUKER BIOSPEC 70/20 system with a 210 mm horizontal bore equipped with B-GA12 shim coils driven by BRUKER Shim Power Supply with a maximum of 2A of current for each shim. S116 birdcage design resonator coil (maximum current: 100 A and maximum voltage: 150V) of 72 mm maximum sample diameter with gradient strength of 200 mT/mm was used for both. T1-weighted images (TR/TE=500/20 msec) are obtained using the standard spin echo sequence in the transverse, sagittal as well as in the coronal direction. […] Multiple contiguous slices separated by 1 mm are collected using 3 sinc pulses each of 2 msec duration, and which cover the entire tumor in one scan. The average scan time is approx 60 sec for the entire T1-weighted protocol.
Cavalieri's method estimates the volume of a structure (in our case, glial tumor) by measuring the area of the structure in a number of evenly spaced “two-dimensional” sections. In our in vivo tumor model, the procedure involves a systematically random collection of 10 sections evenly spaced through the entire tumor. To perform this, the brain is cut into 40 micron coronal sections and every section is collected to encompass the entire tumor. When the anterior most portion of the tumor becomes visible in the series of sections, a die is thrown to determine if the first, second, third, fourth, or fifth section from that point should be the initial section saved for staining and area analysis. Henceforth, every tenth section is stained and tumor area measured. This ensures that each section through the tumor has an equal probability of being analyzed. Tumor area is estimated with suitable precision by applying to each section a point grid with a known area associated with each point (a/p). Tumor volume (V) is then calculated using the formula: V=(T)·(a/p) delta Pi; where T=distance between sections, P=points landing on the tumor on the ith section.

[6] = test system: U87 glioma cells; test: U87 cell death, manual cell counts with trypan blue exclusion; type: cell-based, human; conditions: for % cell death, trypan blue: 250 microM, 48 h treatment
[7] = test system: U87 glioma cells; test: U87 glioma cell adherence to extracellular matrix (ECM); type: cell-based, human; conditions: for activity at 250 µM: Homo sapiens, U-87 MG, U87 cells on ECM, 4 h, read-out: % of control attachment at 4 h
Procedure: As shown in FIGS. 4A and B and, U87 glioma cells in logarithmic growth were trypsinized and washed ×1 with PBS. 4×10^5 cells were plated on to each ECM-coated well that was treated as indicated. Cells were monitored for adherence to the ECM. The numbers of attached cells in each well were manually counted using interference microscopy after 4 hours when adherence was complete. Experiments were performed in triplicate for each treatment and data expressed as mean+S.D. **statistically signif at P<0.001. Glioma cell morphology 4 h after plating as visualized by phase contrast microscopy.
To study adherence, wells in 24-well plates are coated with 200 ul of PBS (CMF Dulbecco's) containing one of the following ECM substrates: {i} […] {ii} vitronectin {iii} fibronectin {iv} lamininin-5. Plates are incubated 1 h at 37° C. then wells are washed once with prewarmed serum-free DMEM and the drug added to each well. Each treatment group, consisting of pretreated glioma cells (3×10^3 cells/well) is plated into 6 wells, and adhesion is evaluated at 60 min intervals over a 6-18 hour period, depending of the cell line. Unbound cells are gently dislodged with Dulbecco's PBS, while counting adherent cells in 10 random fields per each well under 10× magnification using an inverted microscope with interference phase optics and an ocular grid (21 mm^2). During the same time intervals, the percent value of spread cells with respect to adherent cells is evaluated.

[8] = molecular target: T1, bovine pancreatic trypsin (Bos taurus, UniProt P00760); test: LCMS trypsin digest (negative control enzyme); type: biochemical; conditions: LCMS after incubation with enzyme
T1 construct: purchased Calbiochem; host or cells: bovine pancreas
T1 sequence (P00760 24-246): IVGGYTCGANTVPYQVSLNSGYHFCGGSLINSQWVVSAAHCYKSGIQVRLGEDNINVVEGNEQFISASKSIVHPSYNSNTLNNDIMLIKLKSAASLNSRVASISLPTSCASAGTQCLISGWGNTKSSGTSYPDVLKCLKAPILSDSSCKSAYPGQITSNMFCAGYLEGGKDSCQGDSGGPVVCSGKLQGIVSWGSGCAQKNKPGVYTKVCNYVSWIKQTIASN
Procedure: (§1) Compound 3b is a C5am-Gly-peptide conjugate containing two D-amino acids, and compound 3c is a C5 am-Gly-peptide conjugate coupled to a peptide to generate an analog of opioid peptides that cross the blood brain barrier (BBB). The resultant conjugates (compounds 3a-c) were tested for selective cleavage by the brain peptidase enkephalinase (neutral endopeptidase 24.11; Calbiochem) via incubation for 24 h in the presence or absence of the enzyme, and aliquots from the reaction solutions were then analyzed by LCMS to identify the C5am-Gly conjugate (compound 3a), starting material, and enzymatic cleavage products (see, Scheme 3). As negative control experiments, the conjugates were analyzed following treatment with (1) bovine pancreatic trypsin (Calbiochem) or (2) the buffer solutions without enzymes.

[9] = Incubation in buffer solutions without enzymes; type: physicochemical
Procedure: as §1

[10] = molecular target: T2, NHE1 (Homo sapiens, UniProt P19634); test: Sodium-proton exchange (NHE1) inhibition in glioma cells (BCECF fluorometry); type: cell-based
T2 construct: endogenous in cells; host or cells: glioma cell lines (U87)
Procedure: Sodium-proton type 1 (NHE1) and sodium-calcium transport (NCX) measurements in glioma cells. Inhibition of NHE in glioma cell lines using BCECF and quantitative fluorometry are routinely measured (McLean, L. A., et al., Malignant gliomas display altered pH regulation by NHE1 compared with nontransformed astrocytes. Am J Physiol Cell Physiol, 2000. 278(4): p. C676-88). IC50 of NCX transport bidirectionally is measured using whole cell patch clamping bidirectional NCX inhibition using a HEK-293 cell line transfected with NCX 1.1 obtained from J. Lytton (Dong, H., J. Dunn, and J. Lytton, Stoichiometry of the Cardiac Na+/Ca2+ exchanger NCX1.1 measured in transfected HEK cells. Biophys J, 2002. 82(4): p. 1943-52).

[11] = molecular target: T3, uPA (Homo sapiens, UniProt P00749); test: uPA enzymatic inhibition with peptide-specific fluorogenic substrates; type: biochemical
T3 construct: uPA, tPA, and MMP-2 and MMP-9 enzymatic activities secreted by and contained within glioma cell lines; endogenous in cells; host or cells: U87 and other human glioma cell lines (homogenates, conditioned media)
Procedure: uPA, tPA, and MMP-2 and MMP-9 enzymatic activities secreted by and contained within glioma cell lines, normal astrocyte cultures, primary rat brain, and intracranial glioma xenograft homogenates are measured using commercial peptide analog substrates, that become fluorescent when enzymatically cleaved. Recombinant tPA was obtained from ASSAYPRO, CT1001.

[12] = test system: glioma cells; test: Glioma cell volume in vitro and in intracerebral xenografts (7 tesla NMR); type: cell-based

T2 sequence (P19634 whole entry): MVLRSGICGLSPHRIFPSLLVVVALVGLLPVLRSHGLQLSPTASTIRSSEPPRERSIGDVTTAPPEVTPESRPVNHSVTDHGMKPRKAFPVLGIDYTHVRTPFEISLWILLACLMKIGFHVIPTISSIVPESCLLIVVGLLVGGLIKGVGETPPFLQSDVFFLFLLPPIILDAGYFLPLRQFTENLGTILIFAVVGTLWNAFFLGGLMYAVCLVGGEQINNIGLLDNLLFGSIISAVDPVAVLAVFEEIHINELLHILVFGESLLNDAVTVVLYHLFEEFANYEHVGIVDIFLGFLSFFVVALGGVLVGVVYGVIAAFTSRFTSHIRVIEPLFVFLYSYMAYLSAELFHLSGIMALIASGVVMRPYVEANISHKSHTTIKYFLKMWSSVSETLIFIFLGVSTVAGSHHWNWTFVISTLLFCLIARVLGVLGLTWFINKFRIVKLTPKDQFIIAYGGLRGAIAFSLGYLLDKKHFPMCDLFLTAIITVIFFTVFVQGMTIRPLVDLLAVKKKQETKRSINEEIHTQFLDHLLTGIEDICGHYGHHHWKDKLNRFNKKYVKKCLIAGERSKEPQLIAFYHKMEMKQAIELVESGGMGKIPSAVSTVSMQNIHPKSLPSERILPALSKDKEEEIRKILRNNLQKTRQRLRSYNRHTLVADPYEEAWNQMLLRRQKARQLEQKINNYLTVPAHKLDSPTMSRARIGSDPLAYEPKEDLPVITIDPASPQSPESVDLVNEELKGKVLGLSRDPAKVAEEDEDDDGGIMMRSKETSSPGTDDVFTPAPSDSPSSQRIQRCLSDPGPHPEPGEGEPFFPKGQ

Compound: NC(=NCc1ccc(Cl)cc1Cl)NC(=O)c1nc(Cl)c(N)nc1N [DCB, 2,4-dichlorobenzamil]
- toxicity (in words) [1]: highly toxic and causes lethality when administered

Compound: NC(N)=NC(=O)c1nc(Cl)c(N)nc1N [Amiloride, 3,5-diamino-6-chloro-N-(diaminomethylene)pyrazinecarboxamide]
- activity at 250 µM [2]: 31%
- cell permeation (in words) [3]: rapidly permeate cells
- behavioral side effects and seizures (in words) ([4]; efficacious intracranial administration): observed
- neuropathological changes in normal brain cell types (in words) ([4]; intracranial administration, 10-14 days): Neither compound produces neuropathological changes; also recorded: Neuropathological changes were not observed
- animals with intermittent seizures ([4]; intrathecal amiloride infusion, S-D male rats): 3 of 8
- spatial memory (in words) ([4]; intrathecal infusion): modestly affect spatial memory; also recorded: problems with spatial memory that persisted throughout the nine day infusion period
- premature deaths (in words) ([4]; rat, in vivo): no premature deaths
- motor performance (in words) ([4]; rats with intracerebral glioma xenografts, infusion): did not alter motor performance
- Doubling time ([5]; 10 mM amiloride reservoir (Alzet pump, infused days 12-17), day 10 post implant): 3.07 h
- Doubling time ([5]; 10 mM amiloride reservoir, day 12 post implant): 3.4 h
- Doubling time ([5]; 10 mM amiloride reservoir, day 15 post implant): 3.99 h
- Doubling time ([5]; 10 mM amiloride reservoir, day 17 post implant): 4.44 h
- Doubling time ([5]; 100 mM amiloride reservoir, 276 pmol/24 h (infused days 12-17), day 10 post implant): 1.23 h
- Doubling time ([5]; 100 mM amiloride reservoir, 276 pmol/24 h, day 12 post implant): 1.98 h
- Doubling time ([5]; 100 mM amiloride reservoir, 276 pmol/24 h, day 15 post implant): 4.58 h
- Doubling time ([5]; 100 mM amiloride reservoir, 276 pmol/24 h, day 17 post implant): 11.65^++ hrs
- xenograft tumor growth (in words) ([5]; intracranial administration): significantly slowed the growth rate
- % cell death, trypan blue [6]: (57) %
- activity at 250 µM [7]: 58 ± 12%

Compound: CC(C)C[C@@H](NC(=O)[C@H](Cc1ccccc1)NC(=O)CNC(=O)[C@@H](C)NC(=O)CNc1nc(N)c(C(=O)NC(=N)N)nc1Cl)C(=O)O [Compound 3b, C5am-Gly-D-Ala-Gly-Phe-D-Leu-OH] (H-[X1][dA]GF[dL]-OH)
- cleavage by trypsin (in words) [8]: not cleaved
- stability in control (buffer) digestion (in words) [9]: not cleaved

Compound: N=C(N)NC(=O)c1nc(Cl)c(NCC(=O)O)nc1N [AmC(5)Gly, amilorideC(5)-glycine-OH]
- cleavage by trypsin (in words) [8]: unaffected
- glioma cell proliferation (in words) [2]: does not affect
- activity at 250 µM [2]: 93%
- cell permeation (in words) [3]: does not permeate glioma cells
- cell permeation (in words) ([3]; listed as AmC(5)Gly-OH): does not permeate cells
- cell permeation (in words) ([3]; listed as AmC(5)GlyOH): does not
- % cell death, trypan blue [6]: (5) %
- glioma cell death / viability (in words) ([6]; 48 h): does not affect
- stability in control (buffer) digestion (in words) [9]: unaffected
- glioma cell adherence to ECM (in words) [7]: does not affect
- activity at 250 µM [7]: 85 ± 15%
- inhibition of NHE1 (in words) [10]: reversible and micromolar inhibitor
- IC50 ([10]; glioma cells): 10 to 100 nM
- potency of NHE1 inhibition relative to amiloride ([10]; glioma cells): 100-1000 times
- inhibition of NHE1 (in words) ([10]; listed as AmC(5)Gly-OH): micromolar range
- inhibition of NHE1 (in words) ([10]; listed as AmC(5)GlyOH): reversibly and comparably inhibit
- inhibition of NHE1 (in words) ([10]; listed as C5am-Gly): rapidly reversed
- inhibition of uPA (in words) [11]: reversible and micromolar inhibitor
- inhibition of uPA (in words) ([11]; listed as AmC(5)-Gly-OH): selectively inhibit
- inhibition of uPA (in words) ([11]; listed as AmC(5)Gly-OH): micromolar range
- inhibition of uPA (in words) ([11]; listed as AmC(5)GlyOH): reversibly and comparably inhibit
- glioma cell volume (in words) [12]: shrink glioma cell volumes
- glioma cell volume (in words) ([12]; listed as AmC(5)Gly-OH): does reduce glioma cell volume

Compound: CC(C)C[C@H](NC(=O)[C@H](Cc1ccccc1)NC(=O)CNC(=O)CNC(=O)CNC(=O)CNc1nc(N)c(C(=O)NC(=N)N)nc1Cl)C(=O)O [Compound 3c, C5am-Gly-Gly-Gly-Gly-Phe-Leu-OH] (H-[X1]GGGFL-OH)
- cleavage by trypsin (in words) [8]: did not generate C5am-Gly
